The values that follow come from ChEMBL document CHEMBL1158101, “Protein tyrosine phosphatase-1B inhibitory activity of isoprenylated flavonoids isolated from Erythrina mildbraedii” (J Nat Prod, 2006).

This experiment deals with T1, Tyrosine-protein phosphatase non-receptor type 1 (Homo sapiens, UniProt P18031).
T1 sequence (P18031 whole entry): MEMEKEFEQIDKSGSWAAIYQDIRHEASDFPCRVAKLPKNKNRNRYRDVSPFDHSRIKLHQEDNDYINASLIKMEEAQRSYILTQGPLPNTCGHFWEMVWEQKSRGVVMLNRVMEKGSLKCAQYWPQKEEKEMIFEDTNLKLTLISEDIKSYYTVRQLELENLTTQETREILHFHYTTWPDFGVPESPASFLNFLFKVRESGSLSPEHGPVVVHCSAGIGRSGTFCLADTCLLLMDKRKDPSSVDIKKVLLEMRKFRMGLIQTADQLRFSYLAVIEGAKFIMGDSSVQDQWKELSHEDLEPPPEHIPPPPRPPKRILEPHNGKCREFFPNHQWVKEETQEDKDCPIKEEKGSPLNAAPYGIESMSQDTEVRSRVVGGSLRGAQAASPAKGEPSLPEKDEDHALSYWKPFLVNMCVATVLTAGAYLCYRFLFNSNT
The experiment in a line: Inhibition of human recombinant PTP1B.
On to `COc1cc(OC)c2c(=O)c(-c3ccc(O)cc3)coc2c1`, for which the IC50 was over 60 µM.

`CC(C)=CCc1cc([C@@H]2CC(=O)c3ccc(O)cc3O2)cc(CC=C(C)C)c1O` [ABYSSINONE IV]: the IC50 was 16 µM.

`COc1c(CC=C(C)C)cc([C@@H]2CC(=O)c3ccc(O)cc3O2)cc1CC=C(C)C`: the IC50 stood at 21.2 µM.

Consider `CC(C)=CCc1cc([C@@H]2CC(=O)c3c(O)cc(O)cc3O2)cc2c1OC(C)(C)C=C2` [SIGMOIDIN E], for which the IC50 worked out at 39.2 µM.

Consider `COc1c(/C=C/C(C)(C)O)cc([C@@H]2CC(=O)c3ccc(O)cc3O2)cc1CC=C(C)C`, for which the IC50 was over 60 µM.

With `CC(C)=CCc1cc([C@@H]2CC(=O)c3c(O)cc(O)cc3O2)cc(CC=C(C)C)c1O` [ABYSSINONE V], the IC50 was 39.7 µM.

Consider `COc1c(CC=C(C)C)cc(/C=C/C(=O)c2ccc(O)cc2O)cc1CC=C(C)C`, for which the IC50 came to 14.8 µM.

For `O=C1C[C@@H](c2ccc(O)cc2)Oc2cc(O)ccc21` [LIQUIRTIGENIN], the IC50 was over 60 µM.

For the molecule `C[C@@H]1O[C@@H](O[C@H]2[C@H](Oc3cc(O)c4c(c3)O[C@H](c3ccc(O)cc3)CC4=O)O[C@H](CO)[C@@H](O)[C@@H]2O)[C@H](O)[C@H](O)[C@H]1O` [NARINGIN], the IC50 was over 60 µM.

For the molecule `COc1ccc(/C=C/C(=O)c2ccc(O)cc2O)cc1`, the IC50 is over 60 µM.

As for `O=C(/C=C/c1ccc(O)cc1)c1ccc(O)cc1O` [ISOLIQUIRITIGENIN], the concentration for half-maximal inhibition (IC50) was over 60 µM.

Take `CC1(C)C=Cc2c(cc3occ(-c4ccc(O)cc4)c(=O)c3c2O)O1` [ALPINUMISOFLAVONE]: the IC50 was determined as 41.5 µM.

Regarding `COc1c(CC=C(C)C)cc([C@@H]2CC(=O)c3c(O)cc(O)cc3O2)cc1CC=C(C)C`, the IC50 worked out at 26.3 µM.
